Earlier results on 4 molecules are cited in patent US10114931B2, “Pharmaceutical platform technology for the development of natural products” (Sinoveda Canada Inc., priority 2007, dated 2018).

The conditions of data set [1]: in vivo.
A further data set has as its system osteoblast formation. Particulars: compared with genistein.
The conditions of data set [2]: in vivo. The source holds these as a separate data set.
The subject of data set [3] is bone loss in early postmenopausal women. The settings on record: 54 mg/day, given orally for a year.
For data set [4] the following is noted: Yan et al., 2008.

Each structure is given as a SMILES string. Read-outs that look alike come from different tables or passages of the source.

Take `C[C@@H]1O[C@@H](OC[C@H]2O[C@@H](Oc3c(-c4ccc(O)c(O)c4)oc4cc(O)cc(O)c4c3=O)[C@H](O)[C@@H](O)[C@@H]2O)[C@H](O)[C@H](O)[C@H]1O` [Rutin]: the “Detection in the blood stream” value in data set [1] is on record as “not detected”. `O=c1c(-c2ccc(O)cc2)coc2cc(O)ccc12` [daidzein]: the “Potency in osteoblast formation in vitro” value with osteoblast formation is on record as “more potent”. Also, in data set [2], the Bioavailability result is on record as “less than 5%”. For `O=c1c(-c2ccc(O)cc2)coc2cc(O)cc(O)c12` [genistein], in data set [3], the “Efficacy compared with hormone replacement therapy” value is on record as “as effective as hormone replacement therapy”. With `CCC/C=C1\OC(=O)C2=C1CCC=C2` [z-ligustilide], the Bioavailability result in data set [4] was “less than 3%”.
